Assay results as given in the NIST ThermoML archive (doi:10.1016/j.jct.2018.06.022).

Details: Liquid, Closed cell (Static) method

O=C=O [carbon dioxide]
Details | vapor or sublimation pressure [kPa]
218.15 K | 552.5
233.15 K | 1004.4
243.15 K | 1428
258.15 K | 2293.7
273.15 K | 3484.6
288.19 K | 5089.6
302.94 K | 7171.2
